One data set concerns the target T1, hFSH-R (Homo sapiens, UniProt P23945).
T1 construct: expressed in transfected cells; host or cells: CHO-3D2 cells (CHO-K1 parental line)
T1 sequence (P23945 18-695): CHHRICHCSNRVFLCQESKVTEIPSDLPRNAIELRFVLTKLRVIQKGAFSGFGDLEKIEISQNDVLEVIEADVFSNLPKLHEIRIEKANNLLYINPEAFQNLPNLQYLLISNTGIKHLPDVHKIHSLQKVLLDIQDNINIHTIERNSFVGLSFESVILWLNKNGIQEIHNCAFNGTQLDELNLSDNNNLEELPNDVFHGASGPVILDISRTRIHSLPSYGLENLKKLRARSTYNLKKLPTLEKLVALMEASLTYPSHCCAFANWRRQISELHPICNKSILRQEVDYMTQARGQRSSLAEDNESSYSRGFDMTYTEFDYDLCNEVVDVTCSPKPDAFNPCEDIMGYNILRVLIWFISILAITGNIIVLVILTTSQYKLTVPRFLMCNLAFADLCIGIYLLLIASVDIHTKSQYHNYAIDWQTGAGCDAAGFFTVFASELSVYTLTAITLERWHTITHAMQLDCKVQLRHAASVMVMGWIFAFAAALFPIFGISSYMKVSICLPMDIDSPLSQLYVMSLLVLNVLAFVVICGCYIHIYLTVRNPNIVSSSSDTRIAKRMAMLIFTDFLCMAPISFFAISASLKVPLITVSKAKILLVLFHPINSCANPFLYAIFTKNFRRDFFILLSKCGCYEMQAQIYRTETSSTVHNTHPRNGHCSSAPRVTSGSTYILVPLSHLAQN
Kind of data set: cAMP accumulation (RIA) in CHO-3D2 cells (hFSH-R), hFSH-induced. It counts as cell-based. As to conditions: for Emax: read-out: cAMP % efficacy. Here is the method: In Vitro Bio-Assay, Selectivity and Dependency of Agonists and Antagonists to the FSH Receptor
Compound Vehicle: Stock compounds were solubilized in 100% DMSO (Sigma-Aldrich Chemical Co., St. Louis, Mo.) at a concentration of 30 mM. The compounds subsequently were diluted in sterile assay medium consisting of Opti-MEM® I (Invitrogen/Life Technologies, Carlsbad, Calif.) with 0.1% (w/v) BSA (Sigma-Aldrich) prior to use in the bio-assay. The final concentration of DMSO in the assay was 0.1%.
Plated cells are then incubated at 37° C. in a humidified 5% CO2/95% air atmosphere.
Assay: On the day of the assay, cells were washed three times with 100 μl/well of assay medium consisting of Opti-MEM® I (Invitrogen/Life Technologies) with 0.1% (w/v) BSA (Sigma-Aldrich). Medium was removed and 100 μl of assay medium was added to each well. Plates were incubated for an additional 30 minutes at 37° C. […] Reactions were terminated by the addition of 50 μl of 0.2N hydrochloric acid to each well and cAMP-accumulation was measured by radioimmunoassay (RIA) using a commercially available kit (Amersham Biosciences, Piscataway, N.J.).
All test compounds were evaluated in a dose-response paradigm ranging from 0.01 to 30 μM. Controls and test compounds were evaluated in quadruplicate in a 96-well format.
Along with the test compounds, FSH also was run as a positive control in the agonist mode using concentrations ranging from 0.1-1000 ng/ml.
Data were analyzed by one-way analysis of variance and significant differences between treatments and control determined by Least Significant Difference test.
Test compounds were compared to the effect of purified human FSH.
(In general: Cyclic AMP is a second messenger, typically raised through Gs and lowered through Gi signalling.)

Another data set deals with T2, human FSH receptor (Homo sapiens, UniProt P23945).
T2 construct: host or cells: CHO-K1 (CHO FSH-R 6CRE-Luc, 1D7 cells)
T2 sequence (P23945 18-695): T1 sequence (P23945 18-695)
The data set is described as follows: Follicle-Stimulating Hormone Receptor-Dependent Cre-Luciferase Reporter Gene Assay (CHO FSH-R 6CRE-Luc cells). The format is cell-based. The conditions noted are these: for IC50: dose-response format, in presence of EC50 of purified human FSH. A digest of the protocol:
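CHO-K1 cells stably expressing human FSH receptor and a 6×CRE-driven luciferase reporter; compounds in growth medium with 0.2% DMSO, incubated 4 h at 37 °C. Luciferase measured by chemiluminescence (RLU/sec/well); 2-dose results given as percent inhibition of the response to an EC50 concentration of FSH.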
(A reporter such as luciferase makes a cellular process visible.)

In general, melting point refers to the temperature, or range, at which the solid turns liquid. The IC50 is the concentration needed to halve the response being measured. Compound `Cc1ccc(CNC(=O)c2ccc3n2Cc2ccccc2N(C(=O)c2ccc(-c4ccccc4C)c(C)c2)C3)cc1` [Example 14] registered a melting point of 179 to 181 °C. At hFSH-R, half-maximal inhibition (IC50) was put at 2.6 µM and the Emax was 86%. Moreover, the IC50 at human FSH receptor was found to be 1.71 µM.

`Cc1ccccc1-c1ccc(C(=O)N2Cc3ccc(C(=O)NCc4ccccc4)n3Cc3ccccc32)cc1C` [Example 15] had a melting point of 138 to 141 °C. In addition, at hFSH-R, the IC50 came to 0.4 µM and the Emax stood at 90%. Moreover, on human FSH receptor, the IC50 came out at 2.6 µM.

`Cc1ccccc1-c1ccc(C(=O)N2Cc3ccc(C(=O)NCc4cccc(C(F)(F)F)c4)n3Cc3ccccc32)cc1C` [Example 16] displayed a melting point of 171 to 173 °C. For the same compound, at hFSH-R, the IC50 is 14 µM and the Emax is 65%. For the same compound, the IC50 at human FSH receptor is 8.5 µM.

`Cc1ccccc1CNC(=O)c1ccc2n1Cc1ccccc1N(C(=O)c1ccc(-c3ccccc3C)c(C)c1)C2` [Example 17] had a melting point of 128 to 130 °C. Moreover, at hFSH-R, it took 2.6 µM to reach half-maximal inhibition (IC50) and the Emax was 88%. Besides, the IC50 on human FSH receptor was determined as 6.39 µM.

Usually inhibition stands for the share of the control response that was lost under treatment. Compound `Cc1ccccc1-c1ccc(C(=O)N2Cc3ccc(C(=O)NCc4ccc(Cl)cc4)n3Cc3ccccc32)cc1C` [Example 18] gave a melting point of 196 to 197 °C. Besides, the IC50 on hFSH-R was greater than 30 µM. Besides, the inhibition at 30 µM at human FSH receptor (2-dose format, concentration in parentheses 30 μM, inhibition of the response to EC50 of FSH) stood at 58%.

On to `COc1cc(CNC(=O)c2ccc3n2Cc2ccccc2N(C(=O)c2ccc(-c4ccccc4C)c(C)c2)C3)cc(OC)c1` [Example 20], for which the melting point is 183 to 184 °C. The IC50 against hFSH-R was greater than 30 µM. The IC50 at human FSH receptor came out at 12 µM.

`Cc1ccc(CNC(=O)c2ccc3n2Cc2ccccc2N(C(=O)c2ccc(-c4ccccc4C)c(C)c2)C3)c(C)c1` [Example 21]: the melting point was 159 to 161 °C. On hFSH-R, the 50% inhibitory concentration (IC50) is greater than 30 µM. The IC50 on human FSH receptor was determined as 6.2 µM.

Compound `Cc1cccc(CNC(=O)c2ccc3n2Cc2ccccc2N(C(=O)c2ccc(-c4ccccc4C)c(C)c2)C3)c1` [Example 22] showed a melting point of 130 to 132 °C. At hFSH-R, inhibition was half-maximal at 3 µM (IC50) and the Emax was 62%. Further, the IC50 at human FSH receptor is 2.88 µM.

`Cc1ccccc1-c1ccc(C(=O)N2Cc3ccc(C(=O)NCc4ccc5c(c4)OCO5)n3Cc3ccccc32)cc1C` [Example 23] gave a melting point of 149 to 151 °C. Further, on hFSH-R, the half-maximal inhibitory concentration (IC50) came to 7.7 µM and the Emax amounted to 77%. The IC50 at human FSH receptor was 1.41 µM.

Regarding `Cc1ccccc1-c1ccc(C(=O)N2Cc3ccc(C(=O)NCCc4ccc(O)cc4)n3Cc3ccccc32)cc1C` [Example 31], the melting point fell in the range of 129 to 131 °C. Moreover, at hFSH-R, the midpoint of inhibition, the IC50, lay at 0.2 µM and the Emax came to 100%. In addition, at human FSH receptor, the 50% inhibitory concentration (IC50) was determined as 0.8 µM.

The compound `Cc1ccccc1-c1ccc(C(=O)N2Cc3ccc(C(=O)NCc4cccc(N)c4)n3Cc3ccccc32)cc1C` [Example 34] gave a melting point of 105 to 115 °C. This compound yielded an IC50 at hFSH-R of 2.6 µM. Besides, the IC50 at human FSH receptor stood at 5.37 µM.

On to `COc1cc(C(=O)N2Cc3ccc(C(=O)NCc4cccc(C)c4)n3Cc3ccccc32)ccc1-c1ccccc1C` [Example 37, 10-[(2-METHOXY-2′-METHYL-1,1′-BIPHENYL-4-YL)CARBONYL]-N-(3-METHYLBENZYL)-10,11-DIHYDRO-5H-PYRROLO[2,1-C][1,4]BENZODIAZEPINE-3-CARBOXAMIDE], for which the melting point is 165 to 166 °C. At hFSH-R, the midpoint of inhibition, the IC50, lay at 0.7 µM and the Emax came out at 80%. In addition, the IC50 on human FSH receptor was determined as 4.03 µM.

Turning to `COc1cc(C(=O)N2Cc3ccc(C(=O)NCc4ccc(C)cc4)n3Cc3ccccc32)ccc1-c1ccccc1C` [Example 38, 10-[(2-METHOXY-2′-METHYL-1,1′-BIPHENYL-4-YL)CARBONYL]-N-(4-METHYLBENZYL)-10,11-DIHYDRO-5H-PYRROLO[2,1-C][1,4]BENZODIAZEPINE-3-CARBOXAMIDE], the melting point lay within 179 to 180 °C. For the same compound, at hFSH-R, the IC50 came out at 0.5 µM and the Emax is 83%. Besides, the IC50 on human FSH receptor amounted to 1.69 µM.

Turning to `COc1cc(C(=O)N2Cc3ccc(C(=O)NCc4ccc5c(c4)OCO5)n3Cc3ccccc32)ccc1-c1ccccc1C` [Example 40], the melting point was 167 to 168 °C. On hFSH-R, the midpoint of inhibition, the IC50, lay at 0.4 µM and the Emax worked out at 90%. The 50% inhibitory concentration (IC50) on human FSH receptor came to 1.05 µM.

The compound `COc1cc(C(=O)N2Cc3ccc(C(=O)NCc4cccc(C(F)(F)F)c4)n3Cc3ccccc32)ccc1-c1ccccc1C` [Example 42, 10-[(2-METHOXY-2′-METHYL-1,1′-BIPHENYL-4-YL)CARBONYL]-N-[3-(TRIFLUOROMETHYL)BENZYL]-10,11-DIHYDRO-5H-PYRROLO[2,1-C][1,4]BENZODIAZEPINE-3-CARBOXAMIDE] returned a melting point of 176 to 177 °C. Also, on hFSH-R, inhibition was half-maximal at 6.3 µM (IC50) and the Emax was 74%. In addition, the IC50 on human FSH receptor was found to be 4.33 µM.

Take `COc1cc(C(=O)N2Cc3ccc(C(=O)NCc4ccccc4)n3Cc3ccccc32)ccc1-c1ccccc1C` [Example 44, N-BENZYL-10-[(2-METHOXY-2′-METHYL-1,1′-BIPHENYL-4-YL)CARBONYL]-10,11-DIHYDRO-5H-PYRROLO[2,1-C][1,4]BENZODIAZEPINE-3-CARBOXAMIDE]: the melting point lay within 170 to 174 °C. On hFSH-R, the half-maximal inhibitory concentration (IC50) was greater than 30 µM. Moreover, the IC50 at human FSH receptor amounted to 1.35 µM.

`COc1cc(C(=O)N2Cc3ccc(C(=O)NCCc4ccc(O)cc4)n3Cc3ccccc32)ccc1-c1ccccc1C` [Example 55, N-[2-(4-HYDROXYPHENYL)ETHYL]-10-[(2-METHOXY-2′-METHYL-1,1′-BIPHENYL-4-YL)CARBONYL]-10,11-DIHYDRO-5H-PYRROLO[2,1-C][1,4]BENZODIAZEPINE-3-CARBOXAMIDE] yielded a melting point of 190 to 194 °C. On hFSH-R, the IC50 was 13 µM and the Emax amounted to 60%. In addition, the IC50 at human FSH receptor is greater than 30 µM.

On to `COc1cc(C(=O)N2Cc3ccc(C(=O)NCc4ccc(F)cc4)n3Cc3ccccc32)ccc1-c1ccccc1C` [Example 60, N-(4-FLUOROBENZYL)-10-[(2-METHOXY-2′-METHYL-1,1′-BIPHENYL-4-YL)CARBONYL]-10,11-DIHYDRO-5H-PYRROLO[2,1-C][1,4]BENZODIAZEPINE-3-CARBOXAMIDE], for which the melting point fell in the range of 214 to 215 °C. Moreover, on hFSH-R, the IC50 amounted to 0.4 µM and the Emax is 95%. The IC50 at human FSH receptor was determined as 1.13 µM.

In turn, `COc1cc(C(=O)N2Cc3ccc(C(=O)NCc4ccc5c(c4)OCCO5)n3Cc3ccccc32)ccc1-c1ccccc1C` [Example 64] returned a melting point of 153 to 155 °C. In addition, at hFSH-R, half-maximal inhibition (IC50) required 1.3 µM and the Emax stood at 79%. Moreover, at human FSH receptor, the IC50 worked out at 3.4 µM.

Source of the values: US7691848B2, “Pyrrolobenzodiazepine arylcarboxamides and derivatives thereof as follicle-stimulating hormone receptor antagonists” (Wyeth, priority 2005, dated 2010).
